Data published in patent US11440899B2, “Pyrimidine TBK/IKKe inhibitor compounds and uses thereof” (Merck Patent GmbH, priority 2017, dated 2022).

Legend:
TBK1 = TBK1 (Homo sapiens (Human), UniProt Q9UHD2); experiment: TBK Biochemical Assay
How it was run: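 Enzyme and substrate with compound (10-point 1:4 series, top 30 uM final, 1% DMSO) incubated 90 min at 25 °C, then stopped; substrate/product separated and read by LabChip mobility-shift, staurosporine 10 uM final as full-inhibition control.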

IKKe = IKKe (Homo sapiens (Human), UniProt Q14164); experiment: IKKe Biochemical Assay
Chain of IKKe (Q14164 whole entry, species assumed): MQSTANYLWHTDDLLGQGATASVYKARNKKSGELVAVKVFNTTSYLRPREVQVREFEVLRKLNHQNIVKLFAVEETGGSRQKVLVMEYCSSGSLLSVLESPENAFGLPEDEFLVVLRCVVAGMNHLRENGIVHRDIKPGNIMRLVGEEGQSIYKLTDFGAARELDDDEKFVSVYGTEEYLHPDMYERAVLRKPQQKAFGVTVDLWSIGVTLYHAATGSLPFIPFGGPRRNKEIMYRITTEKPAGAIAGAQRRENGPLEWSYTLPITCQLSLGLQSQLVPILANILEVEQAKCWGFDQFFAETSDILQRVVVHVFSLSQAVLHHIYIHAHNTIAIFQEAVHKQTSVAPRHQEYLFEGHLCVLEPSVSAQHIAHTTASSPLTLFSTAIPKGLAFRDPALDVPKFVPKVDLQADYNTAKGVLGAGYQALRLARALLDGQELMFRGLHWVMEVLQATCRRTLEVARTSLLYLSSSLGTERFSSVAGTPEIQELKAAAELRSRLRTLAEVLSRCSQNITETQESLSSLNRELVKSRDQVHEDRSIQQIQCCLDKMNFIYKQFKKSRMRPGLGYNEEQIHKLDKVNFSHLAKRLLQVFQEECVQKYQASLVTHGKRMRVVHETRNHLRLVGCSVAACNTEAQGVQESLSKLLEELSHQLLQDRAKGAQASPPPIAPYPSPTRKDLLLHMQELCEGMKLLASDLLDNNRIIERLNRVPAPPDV
How it was run: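 Human IKKε activity was measured with compounds in a 10-point 1:4 dilution series, top concentration 30 uM final, in 1% DMSO final; 10 uM staurosporine served as the control. Enzyme and substrate were incubated 90 min at 25° C, then stopped, and substrate/product peaks were separated by microfluidic mobility-shift on a LabChip EZ Reader II.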

Chain of TBK1 (Q9UHD2 whole entry, species assumed): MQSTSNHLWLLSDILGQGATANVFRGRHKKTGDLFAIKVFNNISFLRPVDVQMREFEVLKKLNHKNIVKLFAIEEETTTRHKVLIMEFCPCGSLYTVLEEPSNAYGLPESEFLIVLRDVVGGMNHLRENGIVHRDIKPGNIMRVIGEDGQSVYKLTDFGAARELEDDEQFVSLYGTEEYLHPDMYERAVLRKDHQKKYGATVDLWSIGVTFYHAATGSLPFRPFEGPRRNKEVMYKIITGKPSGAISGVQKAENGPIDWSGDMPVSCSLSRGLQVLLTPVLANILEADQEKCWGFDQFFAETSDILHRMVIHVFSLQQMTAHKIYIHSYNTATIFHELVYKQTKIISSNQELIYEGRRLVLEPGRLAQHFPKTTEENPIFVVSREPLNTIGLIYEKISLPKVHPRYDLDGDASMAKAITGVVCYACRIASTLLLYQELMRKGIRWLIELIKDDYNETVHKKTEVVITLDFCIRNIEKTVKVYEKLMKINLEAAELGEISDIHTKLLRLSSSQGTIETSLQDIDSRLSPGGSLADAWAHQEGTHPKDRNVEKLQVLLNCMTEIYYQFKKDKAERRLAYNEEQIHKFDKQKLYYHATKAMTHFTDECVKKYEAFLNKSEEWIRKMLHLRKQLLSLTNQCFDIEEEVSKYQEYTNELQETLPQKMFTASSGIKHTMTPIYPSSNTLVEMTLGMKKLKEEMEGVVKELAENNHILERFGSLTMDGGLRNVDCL

IC50 (TBK1) [nM]	IC50 (IKKe) [nM]	Structure (SMILES)
< 100	< 100	COc1nc(Nc2cc(-c3ccc(O[C@H]4CCN(C(=O)[C@H](C)O)CC4(F)F)c(C#N)c3)ncn2)ccc1N1CCN(C2COC2)CC1 [Example 91, 2-[[(4S)-3,3-difluoro-1-[(2S)-2-hydroxypropanoyl]piperidin-4-yl]oxy]-5-[6-([6-methoxy-5-[4-(oxetan-3-yl)piperazin-1-yl]pyridin-2-yl]amino)pyrimidin-4-yl]benzonitrile]
< 100	< 100	COc1nc(Nc2cc(-c3ccc(O[C@@H]4CCN(C(=O)[C@H](C)O)CC4(F)F)c(C#N)c3)ncn2)ccc1N1CCN(C2COC2)CC1 [Example 92, 2-[[(4R)-3,3-difluoro-1-[(2S)-2-hydroxypropanoyl]piperidin-4-yl]oxy]-5-[6-([6-methoxy-5-[4-(oxetan-3-yl)piperazin-1-yl]pyridin-2-yl]amino)pyrimidin-4-yl]benzonitrile]
< 100	< 100	COc1nc(Nc2cc(-c3ccc(O[C@H]4CCN(C(=O)[C@H](C)O)CC4(F)F)c(C#N)c3)ncn2)ccc1C1CCN(C2COC2)CC1 [Example 93, 2-[[(4S)-3,3-difluoro-1-[(2S)-2-hydroxypropanoyl]piperidin-4-yl]oxy]-5-[6-([6-methoxy-5-[1-(oxetan-3-yl)piperidin-4-yl]pyridin-2-yl]amino)pyrimidin-4-yl]benzonitrile]
< 100	< 100	COc1nc(Nc2cc(-c3ccc(O[C@@H]4CCN(C(=O)[C@H](C)O)CC4(F)F)c(C#N)c3)ncn2)ccc1C1CCN(C2COC2)CC1 [Example 94, 2-[[(4R)-3,3-difluoro-1-[(2S)-2-hydroxypropanoyl]piperidin-4-yl]oxy]-5-[6-([6-methoxy-5-[1-(oxetan-3-yl)piperidin-4-yl]pyridin-2-yl]amino)pyrimidin-4-yl]benzonitrile]
< 100	< 100	COc1nc(Nc2cc(-c3ccc(O[C@H]4CCN(C(=O)[C@@H](C)O)CC4(F)F)c(C#N)c3)ncn2)ccc1N1CCN(C2COC2)CC1 [Example 95, 2-[[(4S)-3,3-difluoro-1-[(2R)-2-hydroxypropanoyl]piperidin-4-yl]oxy]-5-[6-([6-methoxy-5-[4-(oxetan-3-yl)piperazin-1-yl]pyridin-2-yl]amino)pyrimidin-4-yl]benzonitrile]
< 100	< 100	COc1nc(Nc2cc(-c3ccc(OC4CCN(C(=O)[C@@H](C)O)CC4(F)F)c(C#N)c3)ncn2)ccc1C1CCN(C2COC2)CC1 (stereo partly drawn) [Example 97, 2-([3,3-difluoro-1-[(2R)-2-hydroxypropanoyl]piperidin-4-yl]oxy)-5-[6-([6-methoxy-5-[1-(oxetan-3-yl)piperidin-4-yl]pyridin-2-yl]amino)pyrimidin-4-yl]benzonitrile]
< 100	< 100	COc1nc(Nc2cc(-c3ccc(O[C@@H]4CCN(C(=O)[C@@H](C)O)CC4(F)F)c(C#N)c3)ncn2)ccc1N1CCN(C2COC2)C[C@@H]1C [Example 98, 2-((R)-3,3-difluoro-1-((R)-2-hydroxypropanoyl)piperidin-4-yloxy)-5-(6-(6-methoxy-5-((S)-2-methyl-4-(oxetan-3-yl)piperazin-1-yl)pyridin-2-ylamino)pyrimidin-4-yl)benzonitrile]
< 100	< 100	COc1nc(Nc2cc(-c3ccc(O[C@H]4CCN(C(=O)[C@@H](C)O)CC4(F)F)c(C#N)c3)ncn2)ccc1N1CCN(C2COC2)C[C@@H]1C [Example 99, 2-((S)-3,3-difluoro-1-((R)-2-hydroxypropanoyl)piperidin-4-yloxy)-5-(6-(6-methoxy-5-((S)-2-methyl-4-(oxetan-3-yl)piperazin-1-yl)pyridin-2-ylamino)pyrimidin-4-yl)benzonitrile]
< 100	< 100	COc1nc(Nc2cc(-c3ccc(OC4CCOCC4)c(C#N)c3)ncn2)ccc1N1CCN(C2COC2)CC1 [Example 100, 5-[6-({6-methoxy-5-[4-(oxetan-3-yl)piperazin-1-yl]pyridin-2-yl}amino)pyrimidin-4-yl]-2-(oxan-4-yloxy)benzonitrile]
< 100	< 100	COc1nc(Nc2cc(-c3ccc(O[C@H]4CCN(C(=O)[C@H](C)O)CC4(F)F)c(C#N)c3)ncn2)ccc1N1CCN(C2COC2)C[C@@H]1C [Example 101, 2-[[(4S)-3,3-difluoro-1-[(2S)-2-hydroxypropanoyl]piperidin-4-yl]oxy]-5-[6-([6-methoxy-5-[(2S)-2-methyl-4-(oxetan-3-yl)piperazin-1-yl]pyridin-2-yl]amino)pyrimidin-4-yl]benzonitrile]
< 100	< 100	COc1nc(Nc2cc(-c3ccc(O[C@@H]4CCN(C(=O)[C@H](C)O)CC4(F)F)c(C#N)c3)ncn2)ccc1N1CCN(C2COC2)C[C@@H]1C [Example 102, 2-[[(4R)-3,3-difluoro-1-[(2S)-2-hydroxypropanoyl]piperidin-4-yl]oxy]-5-[6-([6-methoxy-5-[(2S)-2-methyl-4-(oxetan-3-yl)piperazin-1-yl]pyridin-2-yl]amino)pyrimidin-4-yl]benzonitrile]
< 100	< 100	COc1nc(Nc2cc(-c3ccc(O[C@H]4CCN(C(=O)[C@H](C)O)CC4(F)F)c(C#N)c3)ncn2)ccc1N1CCN(C2COC2)C[C@H]1C [Example 103, 2-[[(4S)-3,3-difluoro-1-[(2S)-2-hydroxypropanoyl]piperidin-4-yl]oxy]-5-[6-([6-methoxy-5-[(2R)-2-methyl-4-(oxetan-3-yl)piperazin-1-yl]pyridin-2-yl]amino)pyrimidin-4-yl]benzonitrile]
< 100	< 100	COc1nc(Nc2cc(-c3ccc(O[C@@H]4CCN(C(=O)[C@H](C)O)CC4(F)F)c(C#N)c3)ncn2)ccc1N1CCN(C2COC2)C[C@H]1C [Example 104, 2-[[(4R)-3,3-difluoro-1-[(2S)-2-hydroxypropanoyl]piperidin-4-yl]oxy]-5-[6-([6-methoxy-5-[(2R)-2-methyl-4-(oxetan-3-yl)piperazin-1-yl]pyridin-2-yl]amino)pyrimidin-4-yl]benzonitrile]
< 100	< 100	COc1nc(Nc2cc(-c3ccc(OC4CCN(C(=O)[C@H](C)O)CC4)c(C#N)c3)ncn2)ccc1C(=O)N(C)C [Example 105, 6-([6-[3-cyano-4-([1-[(2S)-2-hydroxypropanoyl]piperidin-4-yl]oxy)phenyl]pyrimidin-4-yl]amino)-2-methoxy-N,N-dimethylpyridine-3-carboxamide]

Structure (SMILES)	IC50 (TBK1) [nM]	IC50 (IKKe) [nM]
COc1nc(Nc2cc(-c3ccc(OC4CCOCC4)c(C#N)c3)ncn2)ccc1C(=O)NC1CN2CCC1CC2 (centres unmarked) [Example 89, 6-((6-(3-cyano-4-((tetrahydro-2H-pyran-4-yl)oxy)phenyl)pyrimidin-4-yl)amino)-2-methoxy-N-(quinuclidin-3-yl)nicotinamide]	< 100	< 100
COc1nc(Nc2cc(-c3ccc(OC4CCOCC4)c(C#N)c3)ncn2)ccc1C(=O)N1C2CCCC1COC2 [Example 90, 5-(6-[[6-methoxy-5-([3-oxa-9-azabicyclo[3.3.1]nonan-9-yl]carbonyl)pyridin-2-yl]amino]pyrimidin-4-yl)-2-(oxan-4-yloxy)benzonitrile]	< 100	< 100
